# Experiments:
# [1] = tested on: MCF-7 breast cancer cells; experiment: In vitro anti-proliferative activity, MTT assay; assay type: cell-based; conditions: Homo sapiens, MCF7, read-out: In vitro anti-proliferative activities MCF-7 IC50
# [2] = tested on: HCT-116, HepG-2 and MCF-7 cells; assay type: cell-based; conditions: Homo sapiens, read-out: IC50 values against the three cell lines (range)
smiles,measurement,setting,value
"COc1cc(-c2ccc(C(=O)N/N=C/c3ccc(O)cc3)c(C)n2)cc(OC)c1OC [Va, (E)-N′-(4-Hydroxybenzylidene)-2-methyl-6-(3,4,5-trimethoxyphenyl)nicotinohydrazide]",IC50,[1],21.5 ± 0.67 µM
same,IC50,[2],10.8 to 31.5 µM
"COc1cc(-c2ccc(C(=O)N/N=C/c3ccncc3)c(C)n2)cc(OC)c1OC [Vk, (E)-2-Methyl-N′-(pyridin-4-ylmethylene)-6-(3,4,5-trimethoxyphenyl)nicotinohydrazide]",IC50,[1],17.5 ± 0.57 µM
same,IC50,[2],10.8 to 31.5 µM
"COc1ccc(/C=N/NC(=O)c2ccc(-c3cc(OC)c(OC)c(OC)c3)nc2C)cc1OC [Vc, (E)-N′-(3,4-Dimethoxybenzylidene)-2-methyl-6-(3,4,5-trimethoxyphenyl)nicotinohydrazide]",IC50,[1],9.15 ± 0.31 µM
same,IC50,[2],3.25 to 9.15 µM
"COc1cc(-c2ccc(-c3nnc(SC)o3)c(C)n2)cc(OC)c1OC [VIIIa, 2-[2-Methyl-6-(3,4,5-trimethoxyphenyl)pyridin-3-yl]-5-(methylthio)-1,3,4-oxadiazole]",IC50,[1],18.2 ± 0.55 µM
same,IC50,[2],10.8 to 31.5 µM
"COc1cc(-c2ccc(C(=O)N/N=C/c3ccc([N+](=O)[O-])cc3)c(C)n2)cc(OC)c1OC [Vj, (E)-2-Methyl-N′-(4-nitrobenzylidene)-6-(3,4,5-trimethoxyphenyl)nicotinohydrazide]",IC50,[1],4.82 ± 0.05 µM
same,IC50,[2],3.25 to 9.15 µM
"COc1ccccc1/C=N/NC(=O)c1ccc(-c2cc(OC)c(OC)c(OC)c2)nc1C [Vb, (E)-N′-(2-Methoxybenzylidene)-2-methyl-6-(3,4,5-trimethoxyphenyl)nicotinohydrazide]",IC50,[1],8.5 ± 0.24 µM
same,IC50,[2],3.25 to 9.15 µM
"COc1cc(-c2ccc(-c3nnc(SCC4CCCCC4)o3)c(C)n2)cc(OC)c1OC [VIIIe, 2-[(Cyclohexylmethyl)thio]-5-[2-methyl-6-(3,4,5-trimethoxyphenyl)pyridin-3-yl]-1,3,4-oxadiazole]",IC50,[1],21.4 ± 0.45 µM
same,IC50,[2],10.8 to 31.5 µM
"CCCCCCSc1nnc(-c2ccc(-c3cc(OC)c(OC)c(OC)c3)nc2C)o1 [VIIId, 2-(Hexylthio)-5-[2-methyl-6-(3,4,5-trimethoxyphenyl)pyridin-3-yl]-1,3,4-oxadiazole]",IC50,[1],27.2 ± 0.68 µM
same,IC50,[2],10.8 to 31.5 µM
"CCSc1nnc(-c2ccc(-c3cc(OC)c(OC)c(OC)c3)nc2C)o1 [VIIIb, 2-(Ethylthio)-5-[2-methyl-6-(3,4,5-trimethoxyphenyl)pyridin-3-yl]-1,3,4-oxadiazole]",IC50,[1],14.8 ± 0.37 µM
"COc1cc(-c2ccc(C(=O)N/N=C/c3cc(Cl)ccc3Cl)c(C)n2)cc(OC)c1OC [Vh, (E)-N′-(2,5-Dichlorobenzylidene)-2-methyl-6-(3,4,5-trimethoxyphenyl)nicotinohydrazide]",IC50,[1],30.1 ± 0.75 µM
same,IC50,[2],10.8 to 31.5 µM
"COc1cc(-c2ccc(C(=O)N/N=C/c3ccc(Cl)cc3)c(C)n2)cc(OC)c1OC [Vg, (E)-N′-(4-Chlorobenzylidene)-2-methyl-6-(3,4,5-trimethoxyphenyl)nicotinohydrazide]",IC50,[1],31.5 ± 0.7 µM
same,IC50,[2],10.8 to 31.5 µM
"COc1cc(-c2ccc(C(=O)N/N=C/c3cc(C)ccc3C)c(C)n2)cc(OC)c1OC [Vf, (E)-N′-(2,5-Dimethylbenzylidene)-2-methyl-6-(3,4,5-trimethoxyphenyl)nicotinohydrazide]",IC50,[1],6.32 ± 0.14 µM
same,IC50,[2],3.25 to 9.15 µM
"COc1cc(-c2ccc(-c3nnc(SCCCBr)o3)c(C)n2)cc(OC)c1OC [VIIIc, 2-[(3-Bromopropyl)thio]-5-[2-methyl-6-(3,4,5-trimethoxyphenyl)pyridin-3-yl]-1,3,4-oxadiazole]",IC50,[1],25.2 ± 0.64 µM
same,IC50,[2],10.8 to 31.5 µM
"CCOc1ccc(/C=N/NC(=O)c2ccc(-c3cc(OC)c(OC)c(OC)c3)nc2C)cc1 [Ve, (E)-N′-(4-Ethoxybenzylidene)-2-methyl-6-(3,4,5-trimethoxyphenyl)nicotinohydrazide]",IC50,[1],46.6 ± 0.95 µM
"COc1cc(OC)c(/C=N/NC(=O)c2ccc(-c3cc(OC)c(OC)c(OC)c3)nc2C)c(OC)c1 [Vd, (E)-2-Methyl-N′-(2,4,6-trimethoxybenzylidene)-6-(3,4,5-trimethoxyphenyl)nicotinohydrazide]",IC50,[1],15.8 ± 0.46 µM
same,IC50,[2],10.8 to 31.5 µM
